From PubChem BioAssay AID179 (DTP/NCI, 2004) come the findings set out here.

pEC50, pIC50: −log10 of the molar value. Values joined by “and” are separate entries in the source; they are usually repeats but may differ in a detail not shown here. Equal entries are not always repeated. Active and inactive are the calls of the source.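 The calls were made as follows: active = compounds giving half or more protection of infected cells from virus-caused growth loss, again on retest; inactive = the rest.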 Where a SMILES comes first, the peptide text is derived from it. Bridges are numbered along the chain shown (N, C = ends). Roman numbers before positions name the chains, in order. Bounds are passed on as bounds.

The term pEC50 denotes −log10 of the EC50, conventionally taken in molar units. By pIC50 is commonly meant the IC50 on a negative log10 scale, so that one unit is a factor of ten. Low readings indicate a high IC50, high ones a low IC50.

The assay has as its system CEM cells HIV-1 protection, formazan growth assay. The experiment in a line: NCI AIDS Antiviral Assay. The settings on record: for pIC50: measured here: growth of uninfected CEM cells. Summed up: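 CEM (human) cells, HIV-1 infected vs uninfected, 5-point dosing, formazan growth read-out. Retest threshold 50% protection.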

Consider `CCOC(=O)c1[nH]cc(C)c1-c1cccn1-c1ccc(Cl)cc1[N+](=O)[O-]`, for which the pEC50 is less than 3.70 and the pIC50 is 4.51.
As for `Cc1ccc(C2OC(COCc3ccc(Cl)cc3)C(OCc3ccc(Cl)cc3)C2O)cc1` (stereo not drawn), the result was inactive.
For the molecule `S=c1cc(-c2ccc3c(c2)OCO3)s[nH]1`, the pEC50 is less than 3.70 and the negative-log IC50 (pIC50) was 3.79.
Taken in the same sequence, the figures for `CSc1nc(Cl)c2c(n1)Sc1nc3cc4c(cc3n1C2O)OCCO4` (stereo not drawn) were less than 6.70 and 7.10.
In the same order, the values of `O=S(=O)(c1cc(Cl)ccc1Cl)N1CCN(S(=O)(=O)c2cc(Cl)ccc2Cl)CC1` are less than 3.70 and less than 3.70.
For the molecule `NC(=O)c1ncn2c1NC(=O)CC2`, the outcome was inactive.
In the case of `COc1ccc(-c2cncc(-c3ccc(OC)c(OC)c3)c2)cc1OC`, the pEC50 was less than 4.69 and the pIC50 was less than 4.69.
With `C/C(=N\NC(N)=O)C(CN1CCOCC1)C(c1ccccc1)c1c(O)c2ccccc2oc1=O` (stereo not drawn), the pEC50 is less than 4.09 and the pIC50 was 4.17.
With `O=c1[nH]c2cc([N+](=O)[O-])ccc2nc1/C(=N/Nc1ccccc1)C(O)c1ccccc1Cl` (stereo not drawn), the pEC50 is less than 3.44 and the pIC50 is 3.45.
Taken in the same sequence, the figures for `Cc1ccc(/C=C2/Sc3scc(-c4ccccc4)[n+]3C2=O)cc1` were less than 3.70 and 4.32.
Taken in the same sequence, the figures for `CCCNc1c(Cl)cc(Cl)c2[nH]c3ccccc3c(=O)c12` were less than 3.70 and 4.63.
Consider `COc1ccc(NC(=O)C(=O)C2NC(=S)NC2=O)c(OC)c1` (stereo not drawn), for which the pEC50 was less than 3.11 and the pIC50 is less than 3.11.
As for `OC1=CN=COc2ccccc21`, the pEC50 was less than 3.09 and the pIC50 is 3.32.
Taken in the same sequence, the figures for `O=C1c2cccn2-c2ccccc2OC1(CC1CC1)c1ccccc1` (stereo not drawn) were less than 3.70 and 4.94.
In the same order, the values of `CCN(CC)c1oc(N(CC)CC)c(C(=O)Nc2ccccn2)c(=O)c1C(C)=O` are less than 3.20 and 3.60.
Consider `O=C1c2c(O)cccc2C(C(=O)CCCC(=O)C2c3cccc(O)c3C(=O)c3c(O)cccc32)c2cccc(O)c21`, for which the pEC50 is less than 5.32 and the pIC50 was 6.10.
Regarding `Cc1ccc(S(=O)(=O)N(CC(=O)O)c2ccccc2)cc1`, the outcome was inactive.
With `Nc1nc(Cl)c(N)c(NCC2(CO)CC2)n1`, the pEC50 was less than 3.70 and the pIC50 is less than 3.70.
`N/C(=N\N=C\c1cc(I)cc(I)c1O)NO`: the pEC50 is less than 3.70 and the pIC50 was 4.98.
In the case of `O=c1ssc(=Nc2ccccc2)n1-c1ccccc1`, the pEC50 was less than 3.70; the pIC50 is 4.17 and 4.25.
Consider `CN(C)c1ccc(/C=C/c2ccnc3ccc4ccccc4c23)cc1`, for which the pEC50 is less than 4.10 and the pIC50 is less than 4.10.
With `CCN(CC)c1ccc2cc(C(=O)Nc3ccccc3)c(=N)oc2c1`, the pEC50 is less than 4.00 and the pIC50 is less than 4.00.
For the molecule `CN(C)c1c([O-])c(=[N+](C)C)c1=O`, the result was inactive.
`O=c1n(-c2ccccc2)c(=O)n2n1Cc1cc3ccccc3cc1-2`: the pEC50 is less than 4.10 and the pIC50 is less than 4.10.
Turning to `O=C1NC2(CCCCC2)C(=O)N1CCN(CCCl)CCCl`, the pEC50 is less than 3.43 and the pIC50 was 3.57.
Taken in the same sequence, the figures for `C#C[C@]1(O)CC[C@H]2[C@@H]3C[C@@H](O)[C@]45CC4CC[C@]5(C)[C@H]3CC[C@@]21C` (stereo partly drawn) were less than 3.70 and 4.14.
In the same order, the values of `Cc1ccc(S(=O)(=O)N/N=C(\CCN2CCCC2)CC(c2ccccc2)c2c(O)c3ccccc3oc2=O)cc1` (stereo not drawn) are less than 4.92 and less than 4.92.
Taken in the same sequence, the figures for `O=C1/C(=C/c2ccc(Cl)cc2)NC(=S)N1CN1CCCCC1` were less than 3.70 and 4.55.
In the case of `CCCCCCCCCCCCC/C=C/[C@@H](OC(=O)c1ccccc1)C(CO)N=[N+]=[N-]` (stereo partly drawn), the outcome was inactive.
For `O=S(=O)(O)c1ccc(Nc2ccnc3cc(Cl)ccc23)cc1`, the pEC50 is less than 3.70 and the pIC50 is less than 3.70.
`CN(C)c1ccc(/C=C2\C=Cc3ccccc32)cc1F`: the pEC50 is less than 3.70 and the pIC50 is 3.92.
With `CC(c1ccccc1)N1C(=O)CSC1=S` (stereo not drawn), the outcome was inactive.
The same measure, in the same setting: for `CC1(C=O)C(=O)CCC2(C)C3CC(=O)OC3CCC12` (stereo not drawn) the value was “inactive”.
For `O=C(CC1(O)C(=O)N(CN2CCCCC2)c2ccccc21)c1ccccc1` (stereo not drawn), the pEC50 was less than 3.70 and the pIC50 was 4.01.
In the same order, the values of `CCOC(=O)C(C)NC(=O)N(C)C12CC3CC(CC(C3)C1)C2` (stereo not drawn) are less than 3.70 and 3.82.
Taken in the same sequence, the figures for `CC1N=C(SCC(=O)c2ccc(Cl)cc2)N2C(C)N=C(SCC(=O)c3ccc(Cl)cc3)N12` (stereo not drawn) were less than 4.71 and less than 4.71.
Turning to `COC(=O)c1cc(Cl)ccc1NC(=O)c1ccc([N+](=O)[O-])cc1`, the result was inactive.
With `Cc1ccc(N=C2C(=Nc3ccc(C)cc3)N(c3ccc(C)cc3)C(=S)N2C(=O)c2ccccc2)cc1`, the pEC50 was less than 3.70 and the negative-log IC50 (pIC50) is less than 3.70.
Take `COC(=O)c1ccccc1C1CN=NC12Cc1cccc(C)c1C2=O` (stereo not drawn): the pEC50 is less than 3.70 and the pIC50 was 4.24.
In the same order, the values of `CCOC(=O)c1cn2ccccc2c(C(=O)c2cccnc2)c1=N` are less than 4.30 and less than 4.30.
In the same order, the values of `COc1ccc(/C=C2\CN(C)C/C(=C\c3ccc(OC)c(OC)c3OC)C2=O)c(OC)c1OC` are less than 5.70 and 6.48.
Turning to `COc1cc(C(c2cc(OC)c(OC)c(OC)c2)N2C(=O)CCC2C(=O)O)cc(OC)c1OC` (stereo not drawn), the pEC50 is less than 3.70 and the negative-log IC50 (pIC50) was less than 3.70.
Take `C1CN2CN1CN1CCN(C1)C2`: the pEC50 is less than 3.70 and the pIC50 was 4.64.
Taken in the same sequence, the figures for `C[C@H]1NC(=O)C2CCCCN2C(=O)CN(C)C(=O)CNC(=O)C2CCCCN2C(=O)[C@@H](NC(=O)c2nc3ccccc3cc2O)[C@@H](C)NC(=O)C2CCCCN2C(=O)CN(C)C(=O)CNC(=O)[C@@H]2CCCCN2C(=O)C1NC(=O)c1nc2ccccc2cc1O` (stereo partly drawn) were less than 4.98 and 7.37.
In the same order, the values of `C=C1CC2CCCC12C=O` (stereo not drawn) are less than 3.58 and 3.84.
Taken in the same sequence, the figures for `COC(=O)C1=CCS(=O)(=O)C1` were less than 2.85 and 3.75.
As to `COc1ccc(/C=C(\C#N)c2ccccc2[N+](=O)[O-])cc1`, the pEC50 is less than 3.70 and the pIC50 was 4.90.
Taken in the same sequence, the figures for `C=CCNC(=S)N1c2ccccc2NC(=O)CC1C` (stereo not drawn) were less than 3.18 and less than 3.18.
In the same order, the values of `COc1cc(C2c3cc4c(cc3OC(O)C2C)OCO4)cc(OC)c1O` (stereo not drawn) are less than 3.70 and 5.98.
As to `CCOP(=O)(OCC)OC1c2[nH]cc(C(=O)OCc3ccccc3)c2-c2cc(C(=O)OC)[nH]c2C1OC` (stereo not drawn), the pEC50 is less than 3.70 and the pIC50 is 4.78.
Taken in the same sequence, the figures for `COc1ccc2c(C)cc(N/N=C(\C)C=O)nc2c1` were less than 3.70 and 5.39.
Turning to `OCC(O)C(O)C(O)c1nn(-c2ccc(F)cc2)c2nc3cc(Cl)c(Cl)cc3nc12` (stereo not drawn), the result was inactive.
With `S=c1sc2c(Cl)nc(Cl)nc2n1-c1ccccc1`, the pEC50 was less than 4.50 and the pIC50 is less than 4.50.
Turning to `O=C(Oc1c(Br)cc(Br)cc1C(=O)Oc1ccccc1)C(=O)Oc1c(Br)cc(Br)cc1C(=O)Oc1ccccc1`, the pEC50 is less than 3.70 and the pIC50 was 4.51.
As to `COc1cc(C2c3cc4c(cc3OC(N3CCCCC3)C2C)OCO4)cc(OC)c1O` (stereo not drawn), the pEC50 was less than 3.70 and the pIC50 is 5.12.
Taken in the same sequence, the figures for `O=C(CC(=O)c1ccccc1)C(=O)NC12CC3CC(CC(C3)C1)C2` were less than 4.94 and less than 4.94.
Consider `Cc1oc(N)c(C#N)c1C`, for which the result was inactive.
`CC(C)OP(=O)(OC(C)C)C(Nc1cccc(C(F)(F)F)c1)c1ccccc1` (stereo not drawn): the pEC50 is less than 3.70 and the negative logarithm of the IC50 (pIC50) is 4.47.
For the molecule `Cn1c2cc(O)cc(O)c2c(=O)c2c([N+](=O)[O-])cccc21`, the pEC50 was less than 3.85 and the pIC50 is less than 3.85.
With `CCN(CC)CCOC(=O)c1[nH]c(=O)[nH]c(=O)c1N`, the pEC50 was less than 3.70 and the pIC50 is less than 3.70.
`CC1=CC(=O)CCC2(C)C1CC[C@@H]2OC=O` (stereo partly drawn): the outcome was inactive.
Turning to `CCOc1ccc2c(C)cc(=O)oc2c1`, the pEC50 was less than 4.18 and the pIC50 was less than 4.18.
As for `COC(=O)N1C=CC2ON=C(OC)C2C1c1ccccc1` (stereo not drawn), the pEC50 is less than 4.33 and the pIC50 is less than 4.33.
`O=S1(c2ccccc2)=NC(=S)Nc2ccccc21` (stereo not drawn): the pEC50 is 4.76 and the pIC50 is less than 3.70.
In the same order, the values of `Nc1ccn(CCNCCn2cnc3nc(N)[nH]c(=O)c32)c(=O)n1` are less than 5.08 and less than 5.08.
In the same order, the values of `CC(N1CCS(=O)(=O)CC1)P(=O)(O)O` (stereo not drawn) are less than 3.70 and less than 3.70.
Taken in the same sequence, the figures for `COc1ccc(C(C#N)NCCCCCCNC(C#N)c2ccc(OC)cc2)cc1` (stereo not drawn) were less than 3.70 and less than 3.70.
With `c1cc(-c2ncc(-c3ccc4c(c3)CCCO4)o2)ccn1`, the pEC50 was less than 3.70 and the pIC50 was 4.95.
Taken in the same sequence, the figures for `COc1ccc2c(c1)c1c(n2CCN(C)C)-c2ccccc2CC1` were less than 3.70 and 4.83.
`CC(C)C(NC(=O)C(N)CSSCC(N)C(=O)NC(C(=O)O)C(C)C)C(=O)O` (stereo not drawn) (I: H-Cys-Val-OH / II: H-Cys-Val-OH; disulfide I:1-II:1; configuration not given here): the outcome was inactive.
Consider `Nc1sc(=S)nc2[nH]ncc12`, for which the pEC50 is less than 3.70 and the negative-log IC50 (pIC50) is less than 3.70.
As for `COc1ccccc1NC(=O)C(/C=N/C(=S)NCCNc1ccc(OC)c(OC)c1)=C(\C)O`, the pEC50 is less than 3.70 and the pIC50 is 4.29.
On to `CCN(CC)c1ccc(C(=O)c2ccccc2C(=O)O)c(O)c1`, for which the outcome was inactive.
